From patent US20230233606A1, “Cell” (AUTOLUS LIMITED, priority 2019, published 2023) come the findings set out here.

Holding throughout (assay type): cell-based
The subject of data set [1] is SupT1 CD22 Low. The data set can be described thus: IL-2 release ELISA, Example 4, SupT1 CD22 Low. The following applies: 3-IB-PP1 10 uM, CSK^AS expressing T cells, E:T 1:4, 72 h. On the procedure: (§1) Supernatant taken at 72 h post co-culture set up was analysed by ELISA for the presence of IL-2. Each condition was tested with a minimum of 6 donors (n=6), with median indicated. T cells were co-cultured with SupT1 NT (left), SupT1 CD22 High (middle) or SupT1 CD22 Low (right) target cells at an E:T ratio of 1:4.
(§2) In order to investigate cytokine release, supernatant was taken at 72 h post co-culture set up and analysed by ELISA for the presence of IL-2 and IFN-γ.
(In general: An ELISA detects its analyte on a solid surface through an enzyme-linked reagent.)

For data set [2], the system named is SupT1 CD22 High. The data set can be described thus: IFN-γ release ELISA, Example 4, SupT1 CD22 High. The following applies: 3-IB-PP1 10 uM, T cells expressing CSK^AS, E:T 1:4, 72 h. The procedure: (§3) Supernatant taken at 72 h post co-culture set up was analysed by ELISA for the presence of IFN-γ. Each condition was tested with a minimum of 6 donors (n=6), with median indicated. T cells were co-cultured with SupT1 NT (left), SupT1 CD22 High (middle) or SupT1 CD22 Low (right) target cells at an E:T ratio of 1:4.
as §2

For data set [3], the system named is SupT1 CD22 High. The data set can be described thus: FBK assay with increasing concentrations of 3-IB-PP1, Example 5. The following applies: 3-IB-PP1 0.156 uM-10 uM; T cells expressing CSK^AS; CD22 High (6,309 molecules per cell); E:T 1:4; 72 h. On the procedure: (§4) Analysis by flow cytometry was carried out at 72 h post co-culture set up. Each condition was tested with a minimum of 3 donors (n=3), with median indicated. All data was normalised to NT T cells. T cells were co-cultured with SupT1 NT (left) or SupT1 CD22 High (right) target cells at an E:T ratio of 1:4.
(§5) The co-culture described in Example 4 was repeated, but this time with increasing concentrations of 3-IB-PP1 (0.156 uM-10 uM).

For data set [4], the system named is SupT1 CD22 High. Briefly: IFN-γ release with increasing concentrations of 3-IB-PP1, Example 5. The following applies: 3-IB-PP1 0.156 uM-10 uM, T cells expressing CSK^AS, E:T 1:4, 72 h. On the procedure: as §4, §5
Data set [5] relates to SupT1 CD22 High. Briefly: FBK assay with or without 3-IB-PP1, Example 4, SupT1 CD22 High. The following applies: 3-IB-PP1 10 uM; T cells expressing CSK^AS; CD22 High (20,262 molecules per cell); E:T 1:4; 72 h. The procedure: (§6) Analysis by flow cytometry was carried out at 72 h post co-culture set up. Each condition was tested with a minimum of 6 donors (n=6), with median indicated. All data was normalised to NT T cells. T cells were co-cultured with SupT1 NT (left), SupT1 CD22 High (middle) or SupT1 CD22 Low (right) target cells at an E:T ratio of 1:4. Statistics were run using a paired t-test. *P<0.05, **P<0.01, ***P<0.001, ****P<0.0001.
(§7) PBMCs were either left untransduced or transduced with one of the constructs. The capacity of the CAR-T cells to kill target cells expressing CD22 was investigated using a FACS-based killing (FBK) assay. […] Two different types of CD22-expressing SupT1 target cells were generated, one expressing CD22 at a low density (average number of CD22 molecules per cell: 3,309) and one expressing CD22 at a high density (average number of CD22 molecules per cell: 20,262).

The subject of data set [6] is SupT1 CD22 Low. Briefly: IFN-γ release ELISA, Example 4, SupT1 CD22 Low. The following applies: 3-IB-PP1 10 uM, T cells expressing CSK^AS, E:T 1:4, 72 h. The procedure: as §3, §2
Data set [7] has as its system SupT1 CD22 High. Briefly: IL-2 release ELISA, Example 4, SupT1 CD22 High. The following applies: 3-IB-PP1 10 uM, CSK^AS expressing T cells, E:T 1:4, 72 h. On the procedure:
as §1, §2

Data set [8] deals with SupT1 CD22 Low. Briefly: FBK assay with or without 3-IB-PP1, Example 4, SupT1 CD22 Low. The following applies: 3-IB-PP1 10 uM; T cells expressing CSK^AS; CD22 Low (3,309 molecules per cell); E:T 1:4; 72 h. On the procedure: as §6, §7

For the compound `CC(C)(C)n1nc(Cc2cccc(I)c2)c2c(N)ncnc21` [3-IB-PP1, 3-iodo-benzyl-PP1], the IL-2 release entry in data set [1] and in data set [7] was “increased levels of IL-2” throughout. In addition, the IFN-γ release result in data set [2] and in data set [6] was “significantly higher IFN-γ concentrations compared to the media condition” each time. The cytotoxicity result in data set [3] is recorded as “increased in a dose-dependent manner”; in data set [5], “significantly increased compared to the media condition”; in data set [8] it was “significantly increased compared to the media condition”. In data set [4], the IFN-γ production result is reported as “increased in a dose-dependent manner”.
